This is an account of results in US8846393B2, “Methods of improving stem cell homing and engraftment” (Gamida-Cell Ltd., priority 2005, dated 2014).

SMILES strings stand for the structures. Several values for one entry are separate records, joined by “and”; a condition that tells them apart may be missing. Equal entries are not always repeated.

One assay concerns NOD/SCID mice. Nature of the assay: Transplantation of human CD34+ cells into NOD/SCID mice, engraftment and quantification of SCID repopulating cells. Type of assay: in vivo. As to conditions: for engraftment (mice positively engrafted): 3-weeks with cytokines+NA, 4-weeks post transplantation. An excerpt:
FIGS. 4a-4f is a graphic representation of the effect of nicotinamide on homing and engraftment of human hematopoietic cells transplanted into NOD/SCID mice. FIGS. 4a and 4b show the percentage of human (CD45+) cells in the cell populations before transplantation: non-cultured CD34^+ cells (non-cultured, gray ovals), the entire progeny of cultures following 3-week exposure to cytokines alone (cytokines alone, closed ovals), or cytokines and nicotinamide (cytokines+NA, arrows). The percent of engraftment 4 weeks post transplantation was determined by flow cytometry of human CD45 cells in the NOD/SCID marrow (y-axis). The numbers of SCID repopulating cells (SRC) were calculated by plotting the engraftment frequencies at each dose. The resultant curves indicates the estimated frequency of SRCs within non-cultured CD34+ cells (FIG. 4c), culture with cytokines (FIG. 4d) or cytokines and nicotinamide (FIG. 4e). The number shown in each box indicates the calculated frequency of SRCs using the maximum likelihood estimator. […] Mouse bone marrow cells were dually stained with FITC-conjugated anti-CD45 (human) and antibodies to human differentiation markers as indicated. Percentages of dual positive cells are shown within each quadrant. Note the greater than 7 fold enhancement of engraftment in the nicotinamide-treated mice (FIG. 4e), as compared with mice treated with cytokines alone (FIG. 4d); FIGS. 5a-5c are a graphic representation of the effect of nicotinamide (NA) on the engraftment potential of cells cultured under differentiation-promoting conditions. Cultures were initiated with purified cord blood-derived CD34+ cells in medium supplemented with SCF, TPO, IL-6 and FLT3, 50 ng/ml each, and IL-3, 20 ng/ml, with (cytokines+NA, arrows) or without (cytokines, ovals) 10 mM nicotinamide. After 3 weeks, cells were harvested, and transplanted into SCID mice as indicated. Mice were transplanted with 1.25−5×10^4 CD34+ cells or with their progeny following expansion. Mice were sacrificed 4 weeks later and bone marrow cells were analyzed by FACS for the presence of CD34+ (human progenitor) and CD45+ (human) cells. Mice were scored as engrafted when the number of human (CD45+) cells constituted […] of the marrow population. […] FIGS. 4b and 4c show the percentage of total human (CD45+) (FIG. 4b) cells and human progenitor (CD45+CD34+) (FIG. 4c) cells in the bone marrow of mice transplanted with cells derived from culture initiated with 1.25×10^4 CD34+ cells. Note the enhanced engraftment of both total human, and human progenitor cells resulting from nicotinamide treatment. Purified CD34+ cells were cultured in culture bags (American Fluoroseal Co., Gaithersburg, Md.) at 1×10^4 cells/ml in MEMα medium, 10% fetal calf serum (FCS) and cytokines: Thrombopoietin (TPO), interleukin-6 (IL-6), FLT-3 ligand and stem cell factor (SCF), each at a final concentration of 50 ng/ml (Perpo Tech, Inc., Rocky Hill, N.J.), with or without 5 mM nicotinamide (NA) (Sigma Aldrich, Milwaukee, Wis.) and incubated at 37° C. in a humidified atmosphere of 5% CO2 in air. […] Until week 3, the cultures were topped weekly with the same volume of fresh medium and then weekly demi-depopulated. Cell counting, colony forming unit (CFUc) assay and immunophenotype analysis were performed as described hereinbelow. NOD/SCID mice were bred and maintained in sterile intra-ventilated cages (Techniplast, Bugugiatte, Italy). Eight-week-old mice were sub-lethally irradiated as described above. […]

Assay [1] deals with CD26/dipeptidylpeptidase IV. Nature of the assay: FACS analysis of CD26 membranal expression on CD34+ cells after short-term incubation. Type of assay: cell-based, human. As to the method: Cells were obtained from umbilical cord blood after normal full-term delivery (informed consent was given). Samples were collected and frozen according to Rubinstein et al. [Rubinstein et al. Proc Natl Acad Sci USA. 1995; 92 (22):10119-10122.] within 24 h postpartum. Prior to use, the cells were thawed in Dextran buffer (Sigma, St. Louis, Mo., USA) containing 2.5% human serum albumin (HAS, Bayer Corp. Elkhart, Ind., USA), layered on a Ficoll-Hypaque gradient (1.077 g/mL; Sigma), and centrifuged at 800×g for 30 min. The mononuclear cells in the interface layer were collected and washed three times in phosphate-buffered saline (PBS, Biological Industries) containing 0.5% HSA. To purify the CD34+ cells, the mononuclear cell fraction was subjected to two cycles of immunomagnetic bead separation, using a “MiniMACS CD34 progenitor cell isolation kit” (Miltenyi Biotec Bergisch, Gladbach, Germany), according to manufacturer's instructions. The purity of the CD34+ population thus obtained was 95-98%, as evaluated by flow cytometry. Percentages of progenitor cells positive for CD26 were determined by staining of CD34+ cells with anti-CD26 FITC purchased from Becton Dickinson. […] Freshly purified CD34+ cells were FACS analyzed for the expression of CD26 (T-0) then incubated±Nicotinamide 5 mM for 20 hours (T-20 hours) and FACS analyzed again.

In the case of `NC(=O)c1cccnc1` [nicotinamide], the “mice with human (CD45+) cells in bone marrow” value in the assay with NOD/SCID mice (IL-3 supplemented cultures (SCF, TPO, IL-6, FLT3, IL-3) with 10 mM nicotinamide, 1.25×10^4 cells, 4 weeks) is 5 out of 5. In the assay with NOD/SCID mice (IL-3 supplemented cultures with 10 mM nicotinamide, 4-weeks after transplantation), the “engraftment of human progenitors (CD45+CD34+)” value is “observed only in mice transplanted with cells cultured with nicotinamide”. Further, the “number of SRCs relative to non-cultured cells” value with NOD/SCID mice (culture with nicotinamide and cytokines) was determined as 14 fold. Besides, the “engraftment (mice positively engrafted)” value in the assay with NOD/SCID mice (progeny of 3×10^3 CB CD34+ cells) was determined as 50%; in the assay on NOD/SCID mice (progeny of 6×10^3 CD34+ cells) it was 100%. Moreover, in assay [1] (20 hours with Nicotinamide 5 mM, compared to cells without Nicotinamide and to freshly purified CD34+ cells (T-0)), the “reduction of CD26 expression” value is 2-3 fold. In assay [1] (freshly purified CD34+ cells incubated with Nicotinamide 5 mM for 20 hours (T-20)), the “CD26+ cells (%)” value was 2.7% and 6%.
